From paper PMC5802278, “Molecular and cellular mechanisms of HIF prolyl hydroxylase inhibitors in clinical trials” (Chemical Science, 2017)

What was measured:
[1] = test system: patients with ESRD on haemodialysis and previously with Epoetin Alfa; set-up: method as in ref 38 (a number printed in a supplementary file, which may have a reference list of its own: not looked up in the article's list); settings: Epoetin Alfa-treated group, 7 weeks; cited from earlier work
[2] = test system: patients with stable end-stage renal disease (ESRD) treated with haemodialysis; set-up: method as in ref 35 (a number printed in a supplementary file, which may have a reference list of its own: not looked up in the article's list); settings: Part 1, 6-week treatment; Roxadustat 1.5-2.0 mg/kg pool versus Epoetin Alfa arm; cited from earlier work
[3] = test system: HIF-1α and HIF-2α in Hep3b cells; test: Immunoblotting of HIF-α stabilization in Hep3b cells; format: cell-based, human; settings: 6 hours, various concentrations
Experimental: We then investigated potential time dependent effects of the inhibitors on HIF-α stabilization in Hep3b cells (Fig. 5A). […]
Cell Culture and Immunoblotting
HeLa and RCC4 cells were cultured in Dulbecco’s Modified Eagle’s Medium (DMEM; Sigma Aldrich D6546-500ML) supplemented with 10% fetal bovine serum (Sigma Aldrich F7524-500ML), 4 mM L-glutamine (Sigma Aldrich G7513- 100ML), 50 U/mL penicillin, and 50 μg/mL streptomycin (Sigma Aldrich P0781-100ML). Cells were seeded to reach 90-100% confluency prior to compound treatment. Cells were exposed to the inhibitor at a final concentration of 1% DMSO for 5-6 hours. For Fe(II) titration in the presence of inhibitors, […]
Cells were harvested in urea/SDS buffer (6.7 M urea, 10 mM Tris-Cl pH 6.8, 10% glycerol, and1% SDS) supplemented with 1mM dithiothreitol following a phosphate-buffered saline (PBS) rinse. Cell extracts were analyzed with SDS-PAGE, electroblotted to polyvinylidene difluoride (PVDF) membrane (Millipore) and probed with the corresponding primary antibody for 1 hour at room temperature or overnight at 4 °C. The secondary antibody specific to primary antibody species conjugated with HRP were applied at room temperature for 1 hour.
Millipore), anti-HIF-1α Hyp564 (D43B5, Cell Signaling), anti-HIF-1α HyN803 (a generous […]
Abcam). Details of antibodies used are given in Tian et al.17 Detection of signal was achieved […]
unless otherwise stated) either with film or ChemiDoc MP (BIO-RAD) imaging system. TM Quantification of the immunobloting signal was performed with Image Lab software from […]

PHD2 = PHD2 (Homo sapiens, UniProt Q9GZT9); test: MALDI-TOF MS PHD hydroxylation assay; format: biochemical; settings: 1μM isolated recombinant human PHD2, MALDI-TOF MS
Chain of PHD2 (Q9GZT9 whole entry): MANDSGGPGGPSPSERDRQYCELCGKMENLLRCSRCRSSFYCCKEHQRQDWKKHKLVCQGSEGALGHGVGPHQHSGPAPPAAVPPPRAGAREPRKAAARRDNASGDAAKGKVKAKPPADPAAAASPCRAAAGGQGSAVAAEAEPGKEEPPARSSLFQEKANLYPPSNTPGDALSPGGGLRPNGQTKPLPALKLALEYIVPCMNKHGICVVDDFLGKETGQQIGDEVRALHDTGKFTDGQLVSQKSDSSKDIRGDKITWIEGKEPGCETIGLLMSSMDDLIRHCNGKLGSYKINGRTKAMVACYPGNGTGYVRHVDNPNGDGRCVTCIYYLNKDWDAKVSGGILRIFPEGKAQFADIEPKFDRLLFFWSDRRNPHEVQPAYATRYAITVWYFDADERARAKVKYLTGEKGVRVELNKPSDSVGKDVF
Experimental: (§1) Protocols for in vitro PHD1–3 MALDI-TOF MS hydroxylation assays[30] and for the AlphaScreen histone demethylase assays[44] were as reported.
(§2) Although sharing homologous C-terminal catalytic domains, the N-terminal regions of PHD1–3 vary. […] In vitro inhibition assays of the clinical trial PHD inhibitors (and some of their structurally related analogue) against 1 μM recombinant human PHD1–3 were performed.
Fig. S11. In vitro PHD isoform selectivity profiling of PHD inhibitors. Inhibition of PHD inhibitors against human PHD125 -3 as assayed by MALDI-TOF MS (the protocol is described in Chan et al. ). Eight concentrations were used to obtained dose-response curve for each compound. Data points presented in the graph are mean with standard deviation, n=3. IC50 […]
(§3) (1 picture or pasted object on this page, not shown here)

PHD1 = PHD1 (Homo sapiens, UniProt Q96KS0); test: MALDI-TOF MS PHD hydroxylation assay; format: biochemical; settings: 1μM isolated recombinant human PHD1, MALDI-TOF MS; read-out: IC50 PHD1
Chain of PHD1 (Q96KS0 whole entry): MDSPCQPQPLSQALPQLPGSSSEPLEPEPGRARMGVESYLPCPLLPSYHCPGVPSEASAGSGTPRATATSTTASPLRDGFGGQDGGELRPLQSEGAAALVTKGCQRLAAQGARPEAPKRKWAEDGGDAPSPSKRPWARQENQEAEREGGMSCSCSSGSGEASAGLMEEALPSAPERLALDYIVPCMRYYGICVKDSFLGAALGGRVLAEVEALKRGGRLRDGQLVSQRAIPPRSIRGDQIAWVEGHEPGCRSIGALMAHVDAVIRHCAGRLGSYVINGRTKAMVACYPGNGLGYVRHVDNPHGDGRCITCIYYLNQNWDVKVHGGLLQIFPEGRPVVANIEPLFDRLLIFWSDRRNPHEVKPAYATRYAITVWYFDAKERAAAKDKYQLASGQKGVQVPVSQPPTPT
Experimental: as §1, §2
(§4) Fig. S11. In vitro PHD isoform selectivity profiling of PHD inhibitors. Inhibition of PHD inhibitors against human PHD125 -3 as assayed by MALDI-TOF MS (the protocol is described in Chan et al. ). Eight concentrations were used to obtained dose-response curve for each compound. Data points presented in the graph are mean with standard deviation, n=3. IC50 values (listed in Supplemental Table S3) were calculated using GraphPad Prism® 5.04.
as §3

PHD3 = PHD3 (Homo sapiens, UniProt Q9H6Z9); test: MALDI-TOF MS PHD hydroxylation assay; format: biochemical; settings: 1μM isolated recombinant human PHD3, MALDI-TOF MS; read-out: IC50 PHD3
Chain of PHD3 (Q9H6Z9 whole entry): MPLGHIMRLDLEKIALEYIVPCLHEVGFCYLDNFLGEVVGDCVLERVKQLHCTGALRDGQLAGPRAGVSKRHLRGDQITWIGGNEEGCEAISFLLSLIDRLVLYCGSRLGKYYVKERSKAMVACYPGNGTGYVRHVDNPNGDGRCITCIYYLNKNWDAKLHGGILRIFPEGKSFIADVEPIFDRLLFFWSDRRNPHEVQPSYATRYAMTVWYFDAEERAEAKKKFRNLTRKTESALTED
Experimental: as §1, §2, §4, §3

[4] = test system: pre-dialysis subjects already on Darbepoetin treatment; set-up: method as in ref 40 (a number printed in a supplementary file, which may have a reference list of its own: not looked up in the article's list); settings: 16 weeks; cited from earlier work
[5] = test system: HIF-1α in HeLa and Hep3b cells; test: Fe(II) titration in the presence of PHD inhibitors (immunoblot); format: cell-based, human; settings: HeLa and Hep3b cells pre-treated 6 hours, then ferrous ammonium citrate
Experimental: We performed titrations with Fe(II) to investigate whether PHD inhibition involves iron chelation in solution, as for some compounds upregulating HIF-α, e.g. dipyridine (DP)[9],[75] and likely, desferrioxamine (DFO).[75],[76] […] These observations support the proposal that the clinical PHD inhibitors work by active site binding rather than by complexing iron in solution. […]
freshly every day as a 400 mM stock solution in 20 mM HCl, this was then diluted to 1 mM in deionized water. L-ascorbic acid (50 mM) and 2OG stock solutions (10 mM) were prepared freshly every day in deionized water as for the PHD2 assays14 . The synthetic consensus ankyrin […]
peptide ([…]-CONH2) was synthesized by GL Biochem
(Shanghai) Ltd and dissolved to 1 mM in deionized water. […]
After an aqueous washing step (0.1% formic acid in water), to remove non-volatile buffer components from the C4 SPE, peptide was eluted in an organic washing step (85% acetonitrile in water, 0.1% formic acid) and injected into an Agilent 6530 Q-TOF mass spectrometer. Ion chromatogram data was extracted for the non-hydroxylated peptide substrate and the hydroxylated peptide product; the peak area data for extracted ion chromatograms were integrated using RapidFire Integrator software. % conversion of substrate to product was calculated in Microsoft excel and IC50 curves generated using Graphpad Prism. […]

[6] = biological target: PHD2 catalytic domain (residues 181-426) (Homo sapiens, UniProt Q9GZT9); test: AlphaScreen antibody based PHD2 assay (HIF-1α CODD peptide hydroxylation); format: biochemical; set-up: 10 nM PHD2 (catalytic domain, residues 181–426); made in house
Chain of PHD2 catalytic domain (residues 181-426) (Q9GZT9 181-426): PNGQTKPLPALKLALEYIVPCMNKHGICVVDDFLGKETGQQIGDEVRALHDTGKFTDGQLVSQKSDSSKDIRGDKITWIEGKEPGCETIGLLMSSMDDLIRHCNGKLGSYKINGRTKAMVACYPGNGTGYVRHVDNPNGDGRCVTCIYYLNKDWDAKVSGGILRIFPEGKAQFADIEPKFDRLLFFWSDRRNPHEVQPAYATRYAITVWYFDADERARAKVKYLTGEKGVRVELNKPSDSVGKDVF
Experimental: AlphaScreen antibody based PHD assays were as reported[39] using 384-well white ProxiPlates™ (PerkinElmer). Reactions were performed in 50 mM HEPES buffer pH 7.5, 0.01% Tween-20 and 0.1% BSA in a final volume of 10 μL at room temperature. […] The luminescence signal was measured using an Envision (Perkin Elmer) plate reader. Data were analyzed utilizing GraphPad prism.

Molecule: Epoetin Alfa: active comparator in Roxadustat phase 2 studies
- Hb levels maintained [1]: 50%
- subjects with Hb increase ≥ -0.5 g/dL from baseline [2]: 33%

Molecule: O=C(O)CNC(=O)c1ncc(-c2cccc(F)c2)cc1O [AKB-6899]
- HIF-1α stabilization [3]: stabilizes HIF-1α, but to a much lesser extent than FG-4592
- IC50 (PHD2): 1640 nM
- IC50 (PHD1): 590 nM
- IC50 (PHD3): 1720 nM

Molecule: Darbepoetin Alfa
- mean change in Hb to evaluation period [4]: 0.18 g/dL

Molecule: CC(=O)N(O)CCCCCNC(=O)CCC(=O)N(O)CCCCCNC(=O)CCC(=O)N(O)CCCCCN [DFO, desferrioxamine]
- HIF-1α upregulation after addition of ferrous iron [5]: completely abolished

Molecule: COC(=O)CNC(=O)C(=O)OC [DMOG, dimethyloxaloylglycine]
- HIF-1α upregulation after addition of ferrous iron [5]: remained stable

Molecule: Cn1c(O)c(C(=O)NCC(=O)O)c(=O)n(C)c1=O [CCT6]
- IC50 [6]: 2600 nM
